# Laboratory results from US6514913B1, “Weed growth inhibitory compositions” (Marubeni Agrotec Corporation, priority 1998, dated 2003).
# Columns and labels:
# annual bluegrass [1] = test: Pot test in greenhouse, weed growth inhibition (Test Example 1); type: in vivo, Poa annua L.; settings: flowable of Preparation Example 3, soil surface one day after sowing, 30 days after treatment
# From the text: (§1) Plastic pots having a size of 100 m^2/3000 were filled with soil of an upland farm, and the surface of the soil was flattened. Then, the soil surfaces were sowed with weed seeds of annual bluegrass, foxtail, and flat-sedge. After sowing, the seeds were covered with soil to a height of about 5 mm. Also, the rhizomes of Cyperus brevifolius were buried to a depth of about 1 cm. One day after sowing, a predetermined amount of the flowable prepared by the method described in the Preparation Example 3 was applied to the soil surface in an amount of 250 ml/m^2 of dilution with water. Then, the pots were allowed to stand in the greenhouse, and sprinkled with water at the appropriate times. Thirty days after treatment with the composition, its growth inhibition effect was observed. The growth inhibition effect in the table was evaluated according to the following criteria:
# (§2) Evaluation Criteria for Weed Growth Inhibition Effect: […]
# Cyperus brevifolius = test: as above; type: in vivo; settings: flowable of Preparation Example 3, soil surface, rhizomes buried about 1 cm, 30 days after treatment
# From the text: as §1, §2
# foxtail = test: as above; type: in vivo; settings: flowable of Preparation Example 3, soil surface one day after sowing, 30 days after treatment
# From the text: as §1, §2
# flat-sedge = test: as above; type: in vivo, Cyperus microiria; settings: flowable of Preparation Example 3, soil surface one day after sowing, 30 days after treatment
# From the text: as §1, §2
# South Japanese lawngrass = test: Pot test in greenhouse, lawn phytotoxicity (Test Example 2); type: in vivo, Zoysia matrella; set-up: key: −:None; ±:Very slight; +:Slight; 2+:Moderate; 3+:Heavy; ×:Dead; settings: flowable of Preparation Example 3 on bred lawn sod in pots, 30 days after treatment
# From the text: (§3) Plastic pots having a size of 100 m^2/5000 were filled with soil of an upland farm, and planted with a lawn sod withdrawn by a hole cutter from various bred turfs. The planted pots were bred and managed in a greenhouse for about 1 month, and then the lawn grasses were cut to the same height to use the pots as sample pots. On the day of the cutting, a predetermined amount of the flowable prepared by the method described in the Preparation Example 3 applied to the sample pots in an amount of 250 ml/m^2 of dilution with water. Then, the pots were allowed to stand in the greenhouse, and sprinkled with water at the appropriate times. Thirty days after treatment with the composition, its phytotoxicity to the lawn grasses was observed. Evaluations of the phytotoxicity to the lawn grasses in the table were made according to the following criteria:
# Japanese lawngrass = test: as above; type: in vivo, Zoysia japonica; set-up: key: −:None; ±:Very slight; +:Slight; 2+:Moderate; 3+:Heavy; ×:Dead; settings: flowable of Preparation Example 3 on bred lawn sod in pots, 30 days after treatment
# From the text: as §3
# Bentgrass = test: as above; type: in vivo, Agrostis L.; set-up: key: −:None; ±:Very slight; +:Slight; 2+:Moderate; 3+:Heavy; ×:Dead; settings: flowable of Preparation Example 3 on bred lawn sod in pots, 30 days after treatment
# From the text: as §3
# Kentucky bluegrass = test: as above; type: in vivo, Poa pratensis; set-up: key: −:None; ±:Very slight; +:Slight; 2+:Moderate; 3+:Heavy; ×:Dead; settings: flowable of Preparation Example 3 on bred lawn sod in pots, 30 days after treatment
# From the text: as §3
# Bermudagrass = test: as above; type: in vivo; set-up: key: −:None; ±:Very slight; +:Slight; 2+:Moderate; 3+:Heavy; ×:Dead; settings: flowable of Preparation Example 3 on bred lawn sod in pots, 30 days after treatment
# From the text: as §3
# Perennial ryegrass = test: as above; type: in vivo, Lolium SPP.; set-up: key: −:None; ±:Very slight; +:Slight; 2+:Moderate; 3+:Heavy; ×:Dead; settings: flowable of Preparation Example 3 on bred lawn sod in pots, 30 days after treatment
# From the text: as §3
# Tall fescue = test: as above; type: in vivo, Festuca arundinacea; set-up: key: −:None; ±:Very slight; +:Slight; 2+:Moderate; 3+:Heavy; ×:Dead; settings: flowable of Preparation Example 3 on bred lawn sod in pots, 30 days after treatment
# From the text: as §3
# annual bluegrass [2] = test: Field test, lawn grass seed overseeding test, weed growth inhibition (Test Example 4); type: in vivo, Poa annua L.; settings: 30 days after treatment
# Description: Evaluation Criteria for Weed Growth Inhibition Effect:
# A land of breeding of South Japanese lawngrass was divided into plots of 1 m^2 (1×1 m), and seeds of perennial ryegrass or tall fescue, and seeds of annual bluegrass as a weed were sowed on the entire surface of each plot. On the day of sowing, a predetermined amount of the flowable prepared by the method described in the Preparation Example 3 was applied in an amount of 250 ml/m^2 of dilution with water. Thirty days after treatment with the composition, its weed growth inhibition effect and lawn phytotoxicity were observed. Evaluations of the weed growth inhibition effect and lawn phytotoxicity in the table were made according to mentioned criteria.
# [3] = 50 g active ingredient/1000 m^2
# [4] = 100 g active ingredient/1000 m^2
# [5] = 250 g active ingredient/1000 m^2
# [6] = 500 g active ingredient/1000 m^2
# [7] = 750 g active ingredient/1000 m^2
# [8] = 1000 g active ingredient/1000 m^2
# [9] = 2000 g active ingredient/1000 m^2
compound,measurement,setting,value
"CC(C)(NC(=O)NCc1ccccc1Cl)c1ccccc1 [cumyluron, 1-(2-chlorobenzyl)-3-(1-methyl-1-phenylethyl)urea]",Inhibitory effect annual bluegrass,annual bluegrass [1]; [3],9 (9:90% inhibition)
same,Inhibitory effect annual bluegrass,annual bluegrass [1]; [4],10 (10:100% inhibition)
same,Inhibitory effect annual bluegrass,annual bluegrass [1]; [5],10 (10:100% inhibition)
same,Inhibitory effect annual bluegrass,annual bluegrass [1]; [6],10 (10:100% inhibition)
same,Inhibitory effect annual bluegrass,annual bluegrass [1]; [7],10 (10:100% inhibition)
same,Inhibitory effect annual bluegrass,annual bluegrass [1]; [8],10 (10:100% inhibition)
same,Inhibitory effect Cyperus brevifolius,Cyperus brevifolius; [3],1 (1:10% inhibition)
same,Inhibitory effect Cyperus brevifolius,Cyperus brevifolius; [4],5 (5:50% inhibition)
same,Inhibitory effect Cyperus brevifolius,Cyperus brevifolius; [5],9 (9:90% inhibition)
same,Inhibitory effect Cyperus brevifolius,Cyperus brevifolius; [6],10 (10:100% inhibition)
same,Inhibitory effect Cyperus brevifolius,Cyperus brevifolius; [7],10 (10:100% inhibition)
same,Inhibitory effect Cyperus brevifolius,Cyperus brevifolius; [8],10 (10:100% inhibition)
same,Inhibitory effect foxtail,foxtail; [3],9 (9:90% inhibition)
same,Inhibitory effect foxtail,foxtail; [4],10 (10:100% inhibition)
same,Inhibitory effect foxtail,foxtail; [5],10 (10:100% inhibition)
same,Inhibitory effect foxtail,foxtail; [6],10 (10:100% inhibition)
same,Inhibitory effect foxtail,foxtail; [7],10 (10:100% inhibition)
same,Inhibitory effect foxtail,foxtail; [8],10 (10:100% inhibition)
same,Inhibitory effect flat-sedge,flat-sedge; [3],10 (10:100% inhibition)
same,Inhibitory effect flat-sedge,flat-sedge; [4],10 (10:100% inhibition)
same,Inhibitory effect flat-sedge,flat-sedge; [5],10 (10:100% inhibition)
same,Inhibitory effect flat-sedge,flat-sedge; [6],10 (10:100% inhibition)
same,Inhibitory effect flat-sedge,flat-sedge; [7],10 (10:100% inhibition)
same,Inhibitory effect flat-sedge,flat-sedge; [8],10 (10:100% inhibition)
same,Lawn phytotoxicity South Japanese lawngrass,South Japanese lawngrass; [4],−
same,Lawn phytotoxicity South Japanese lawngrass,South Japanese lawngrass; [5],−
same,Lawn phytotoxicity South Japanese lawngrass,South Japanese lawngrass; [6],−
same,Lawn phytotoxicity South Japanese lawngrass,South Japanese lawngrass; [7],−
same,Lawn phytotoxicity South Japanese lawngrass,South Japanese lawngrass; [8],−
same,Lawn phytotoxicity South Japanese lawngrass,South Japanese lawngrass; [9],−
same,Lawn phytotoxicity Japanese lawngrass,Japanese lawngrass; [4],−
same,Lawn phytotoxicity Japanese lawngrass,Japanese lawngrass; [5],−
same,Lawn phytotoxicity Japanese lawngrass,Japanese lawngrass; [6],−
same,Lawn phytotoxicity Japanese lawngrass,Japanese lawngrass; [7],−
same,Lawn phytotoxicity Japanese lawngrass,Japanese lawngrass; [8],−
same,Lawn phytotoxicity Japanese lawngrass,Japanese lawngrass; [9],−
same,Lawn phytotoxicity Bent-grass,Bentgrass; [4],−
same,Lawn phytotoxicity Bent-grass,Bentgrass; [5],−
same,Lawn phytotoxicity Bent-grass,Bentgrass; [6],−
same,Lawn phytotoxicity Bent-grass,Bentgrass; [7],−
same,Lawn phytotoxicity Bent-grass,Bentgrass; [8],−
same,Lawn phytotoxicity Bent-grass,Bentgrass; [9],−
same,Lawn phytotoxicity Kentucky bluegrass,Kentucky bluegrass; [4],−
same,Lawn phytotoxicity Kentucky bluegrass,Kentucky bluegrass; [5],−
same,Lawn phytotoxicity Kentucky bluegrass,Kentucky bluegrass; [6],−
same,Lawn phytotoxicity Kentucky bluegrass,Kentucky bluegrass; [7],−
same,Lawn phytotoxicity Kentucky bluegrass,Kentucky bluegrass; [8],−
same,Lawn phytotoxicity Kentucky bluegrass,Kentucky bluegrass; [9],−
same,Lawn phytotoxicity Bermuda-grass,Bermudagrass; [4],−
same,Lawn phytotoxicity Bermuda-grass,Bermudagrass; [5],−
same,Lawn phytotoxicity Bermuda-grass,Bermudagrass; [6],−
same,Lawn phytotoxicity Bermuda-grass,Bermudagrass; [7],−
same,Lawn phytotoxicity Bermuda-grass,Bermudagrass; [8],−
same,Lawn phytotoxicity Bermuda-grass,Bermudagrass; [9],−
same,Lawn phytotoxicity Perennial ryegrass,Perennial ryegrass; [4],−
same,Lawn phytotoxicity Perennial ryegrass,Perennial ryegrass; [5],−
same,Lawn phytotoxicity Perennial ryegrass,Perennial ryegrass; [6],−
same,Lawn phytotoxicity Perennial ryegrass,Perennial ryegrass; [7],−
same,Lawn phytotoxicity Perennial ryegrass,Perennial ryegrass; [8],−
same,Lawn phytotoxicity Perennial ryegrass,Perennial ryegrass; [9],−
same,Lawn phytotoxicity Tall fescue,Tall fescue; [4],−
same,Lawn phytotoxicity Tall fescue,Tall fescue; [5],−
same,Lawn phytotoxicity Tall fescue,Tall fescue; [6],−
same,Lawn phytotoxicity Tall fescue,Tall fescue; [7],−
same,Lawn phytotoxicity Tall fescue,Tall fescue; [8],−
same,Lawn phytotoxicity Tall fescue,Tall fescue; [9],−
same,Inhibitory effect annual bluegrass,"annual bluegrass [2]; 100 g active ingredient/1000 m^2, flowable of Preparation Example 3 applied on the day of sowing",10 (10:100% inhibition)
same,Inhibitory effect annual bluegrass,"annual bluegrass [2]; 250 g active ingredient/1000 m^2, flowable of Preparation Example 3 applied on the day of sowing",10 (10:100% inhibition)
same,Inhibitory effect annual bluegrass,"annual bluegrass [2]; 500 g active ingredient/1000 m^2, flowable of Preparation Example 3 applied on the day of sowing",10 (10:100% inhibition)
same,Inhibitory effect annual bluegrass,"annual bluegrass [2]; 750 g active ingredient/1000 m^2, flowable of Preparation Example 3 applied on the day of sowing",10 (10:100% inhibition)
same,Inhibitory effect annual bluegrass,"annual bluegrass [2]; 1000 g active ingredient/1000 m^2, flowable of Preparation Example 3 applied on the day of sowing",10 (10:100% inhibition)
